# Source: the supplement of paper PMC10307832
# What was measured:
# Experiment in all cases: relative viability (nuclei count vs DMSO), 5 days (fraction); higher = more cells survive
# Ponatinib + Phenformin = compound: Cc1ccc(C(=O)Nc2ccc(CN3CCN(C)CC3)c(C(F)(F)F)c2)cc1C#Cc1cnc2cccnn12 [Ponatinib] + N=C(N)NC(=N)NCCc1ccccc1 [Phenformin] (partner 250 µM)
# Summary of the method: (§1)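 Relative viability was taken as the ratio of nuclei in treated wells to nuclei in vehicle wells. Lung cancer cell lines in 1536-well plates received compounds by pin tool one day after seeding, either one drug alone or a fixed anchor-drug dose plus five library-drug doses (not always all listed) in √10 steps. Nuclei were counted on 4× images after 5 days of treatment, and values are medians of duplicate plates.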
# Ponatinib + Pemetrexed = compound: Cc1ccc(C(=O)Nc2ccc(CN3CCN(C)CC3)c(C(F)(F)F)c2)cc1C#Cc1cnc2cccnn12 [Ponatinib] + Nc1nc2[nH]cc(CCc3ccc(C(=O)N[C@@H](CCC(=O)O)C(=O)O)cc3)c2c(=O)[nH]1 [Pemetrexed] (partner 0.2 µM)
# Summary of the method: as §1
# Ponatinib + Decitabine = compound: Cc1ccc(C(=O)Nc2ccc(CN3CCN(C)CC3)c(C(F)(F)F)c2)cc1C#Cc1cnc2cccnn12 [Ponatinib] + Nc1ncn([C@H]2C[C@H](O)[C@@H](CO)O2)c(=O)n1 [Decitabine] (partner 2 µM)
# Summary of the method: as §1
# Pazopanib + Linsitinib = compound: Cc1ccc(Nc2nccc(N(C)c3ccc4c(C)n(C)nc4c3)n2)cc1S(N)(=O)=O [Pazopanib] + C[C@]1(O)C[C@@H](c2nc(-c3ccc4ccc(-c5ccccc5)nc4c3)c3c(N)nccn32)C1 [Linsitinib] (partner 1 µM)
# Summary of the method: as §1
cell line,measurement,setting,value
UMC-11,relative viability,Ponatinib + Phenformin; first compound 0.002 µM,0.305
same,relative viability,Ponatinib + Phenformin; first compound 0.006325 µM,0.33
same,relative viability,Ponatinib + Phenformin; first compound 0.06325 µM,0.366
same,relative viability,Ponatinib + Phenformin; first compound 0.2 µM,0.317
same,relative viability,Ponatinib + Pemetrexed; first compound 0.002 µM,0.794
same,relative viability,Ponatinib + Pemetrexed; first compound 0.006325 µM,0.821
same,relative viability,Ponatinib + Pemetrexed; first compound 0.06325 µM,0.862
same,relative viability,Ponatinib + Pemetrexed; first compound 0.2 µM,0.685
same,relative viability,Ponatinib + Decitabine; first compound 0.006325 µM,0.595
same,relative viability,Ponatinib + Decitabine; first compound 0.06325 µM,0.709
same,relative viability,Ponatinib + Decitabine; first compound 0.2 µM,0.575
same,relative viability,Pazopanib + Linsitinib; first compound 0.01 µM,0.974
same,relative viability,Pazopanib + Linsitinib; first compound 0.03162 µM,1.06
same,relative viability,Pazopanib + Linsitinib; first compound 0.1 µM,1.1
same,relative viability,Pazopanib + Linsitinib; first compound 0.3162 µM,1
same,relative viability,Pazopanib + Linsitinib; first compound 1 µM,1.11
